Structures are written as SMILES.

For this assay, the target named is T1, chicken gizzard smooth muscle myosin subfragment-1 chemically crosslinked to either cardiac or skeletal actin (Gallus gallus, UniProt P10587).
T1 construct: chicken gizzard smooth muscle myosin subfragment-1
Briefly: Smooth muscle myosin ATPase dose response assay (pyruvate kinase/horseradish peroxidase/pyruvate oxidase-coupled). The class given is biochemical. As to conditions: ATPase activity of crosslinked smooth muscle actomyosin (subfragment-1); amplex red fluorescence; 4 parameter fit; read-out: IC50 Arithmetic Mean. The method, then:
Screening assays were performed using a pyruvate kinase and lactate dehydrogenase-coupled ATPase assay containing the following reagents: Potassium PIPES (50 mM), MgCl2 (3 mM), KCl (100 mM), ATP (0.15 mM), DTT (1 mM), BSA (0.1 mg/ml), NADH (0.5 mM), PEP (1.5 mM), pyruvate kinase (4 U/ml), lactate dehydrogenase (8 U/ml), and antifoam (50 ppm) (concentrations expressed are final assay concentrations). The pH was adjusted to 6.80 at 22 °C by addition of potassium hydroxide. Lead optimization assays were performed with a more sensitive pyruvate kinase/horseradish peroxidase/pyruvate oxidase-coupled ATPase assay containing the following reagents: Potassium PIPES (12 mM), MgCl2 (2 mM), KCl (100 mM), ATP (0.15 mM), BSA (0.05 mg/ml), potassium phosphate (2 mM), amplex red (0.1 mM), PEP (0.1 mM), pyruvate kinase (4 U/ml), horseradish peroxidase (0.5 U/ml), pyruvate oxidase (0.5 U/ml), and antifoam (50 ppm) (concentrations expressed are final assay concentrations). The pH was adjusted to 7.00 at 22 °C by addition of potassium hydroxide.
The protein components specific to this assay are chicken gizzard smooth muscle myosin subfragment-1 that has been chemically crosslinked to either cardiac or skeletal actin using an excess of 1-Ethyl-3-[3-dimethylaminopropyl]carbodiimide hydrochloride and N-hydroxysuccinimide. The exact concentration of the crosslinked smooth muscle myosin in the assay is determined empirically, by titration to achieve a desired rate of ATP hydrolysis. The concentration varies between protein preparations due to variations in the fraction of active molecules in each preparation.
Compound dose response assays are performed by first preparing a dilution series of test compound, each with an assay mixture containing potassium PIPES, MgCl2, KCl, ATP, BSA, potassium phosphate, amplex red, PEP, crosslinked smooth muscle actomyosin (subfragment-1), antifoam, and water. The assay is started by adding an equal volume of solution containing potassium Pipes, MgCl2, KCl, BSA, potassium phosphate, pyruvate kinase, horseradish peroxidase, pyruvate oxidase, antifoam, and water. ATP hydrolysis is monitored by measuring the fluorescence of amplex red (excitation at 480 nm, emission at 615 nm). The resulting dose response curve is fit by the 4 parameter equation y=Bottom+((Top-Bottom)/(1+((IC50/X)^Hill))). The IC50 is defined as the concentration at which ATPase activity is midway between the top and bottom of the dose response curve.
In the case of `CCOC(C)c1ccc(C(=O)NCc2cccnc2)c(NCCc2cccc(F)c2)n1` (stereo not drawn) [(6-(ethoxyethyl)-2-{[2-(3-fluorophenyl)ethyl]amino}(3-pyridyl))-N-(3-pyridylmethyl)carboxamide], the half-inhibitory concentration (IC50) worked out at 73 µM. With `CNc1ccc(C(=O)NCc2cccnc2)c(NCCc2cccc(F)c2)n1` [(2-{[2-(3-fluorophenyl)ethyl]amino}-6-(methylamino)(3-pyridyl))-N-(3-pyridylmethyl)carboxamide] the figure was 10.9 µM; with `CNC(=O)CNC(=O)c1cc(-c2ccccc2C#N)cnc1NCCc1cccc(F)c1` [2-[(5-(2-cyanophenyl)-2-{[2-(3-fluorophenyl)ethyl]amino}(3-pyridyl))carbonylamino]-N-methylacetamide], 18 µM.

Regarding `COC(=O)c1ccc(NCCCCC(N)=O)nc1NCCc1cccc(F)c1` [methyl 6-[(4-carbamoylbutyl)amino]-2-{[2-(3-fluorophenyl)ethyl]amino}pyridine-3-carboxylate], the IC50 stood at 44.3 µM. With `O=C(NCc1cccnc1)c1ccc(NCCCO)nc1NCCc1cccc(F)c1` [(2-{[2-(3-fluorophenyl)ethyl]amino}-6-[(3-hydroxypropyl)amino](3-pyridyl))-N-(3-pyridylmethyl)carboxamide] the figure was 8.47 µM; with `N#Cc1ccc(C(=O)NCc2cccnc2)c(NCCc2cccc(F)c2)n1` [(6-cyano-2-{[2-(3-fluorophenyl)ethyl]amino}(3-pyridyl))-N-(3-pyridylmethyl)carboxamide], 65.8 µM. Next, `C/C=C/c1nc(NCCc2cccc(F)c2)c(C(=O)NCc2cccnc2)cc1C#N` [(6-((1E)prop-1-enyl)-5-cyano-2-{[2-(3-fluorophenyl)ethyl]amino}(3-pyridyl))-N-(3-pyridylmethyl)carboxamide]: 0.361 µM. With `C/C=C(/C)c1ccc(C(=O)NCc2cccnc2)c(NCCc2cccc(F)c2)n1` [(6-((1Z)-1-methylprop-1-enyl)-2-{[2-(3-fluorophenyl)ethyl]amino}(3-pyridyl))-N-(3-pyridylmethyl)carboxamide] the figure was 10.5 µM; with `CC(C)=C(C)c1ccc(C(=O)NCc2cccnc2)c(NCCc2cccc(F)c2)n1` [(6-(1,2-dimethylprop-1-enyl)-2-{[2-(3-fluorophenyl)ethyl]amino}(3-pyridyl))-N-(3-pyridylmethyl)carboxamide], 2.77 µM.

`O=C(NCc1ccccn1)c1cc(Br)cnc1NCCc1cccc(F)c1` [(5-bromo-2-{[2-(3-fluorophenyl)ethyl]amino}(3-pyridyl))-N-(2-pyridylmethyl)carboxamide]: the IC50 was 11.8 µM. Next, `NCc1cccc(CNC(=O)c2cc(-c3cccnc3)cnc2NCCc2cccc(F)c2)n1` [N-{[6-(aminomethyl)(2-pyridyl)]methyl}(2-{[2-(3-fluorophenyl)ethyl]amino}-5-(3-pyridyl)(3-pyridyl))carboxamide]: 7.39 µM; `CNC(=O)c1ccc(C(=O)NCc2cccnc2)c(NCCc2cccc(F)c2)n1` [(2-{[2-(3-fluorophenyl)ethyl]amino}-6-(N-methylcarbamoyl)(3-pyridyl))-N-(3-pyridylmethyl)carboxamide]: 44.1 µM. With `NCc1cccc(CNC(=O)c2cc(Br)cnc2NCCc2cccc(F)c2)n1` [N-{[6-(aminomethyl)(2-pyridyl)]methyl}(5-bromo-2-{[2-(3-fluorophenyl)ethyl]amino}(3-pyridyl))carboxamide] the figure was 15 µM; with `CN(C)c1ccc(C(=O)NCc2cccnc2)c(NCCc2cccc(F)c2)n1` [(6-(dimethylamino)-2-{[2-(3-fluorophenyl)ethyl]amino}(3-pyridyl))-N-(3-pyridylmethyl)carboxamide], 4.92 µM; with `NC(=O)CCCNc1ccc(C(=O)NCc2cccnc2)c(NCCc2cccc(F)c2)n1` [(6-[(3-carbamoylpropyl)amino]-2-{[2-(3-fluorophenyl)ethyl]amino}(3-pyridyl))-N-(3-pyridylmethyl)carboxamide], 42.8 µM.

(Values after patent US7939548B2, “Certain chemical entities, compositions, and methods” (Cytokinetics, Inc., priority 2006, dated 2011).)
